According to article PMC10461829, “NlpC/P60 peptidoglycan hydrolases of Trichomonas vaginalis have complementary activities that empower the protozoan to control host-protective lactobacilli” (PLOS Pathogens, 2023):

Molecular target: T1, TvNlpC_B3 (Trichomonas vaginalis, UniProt A2FQ38)
T1 construct: gene TVAG_042760; N-terminal His6-3C tag cleaved; E. coli BL21(DE3), pET47b; model Asn23-Tyr137; catalytic Cys53/His99/His111; no SH3 domain; E64 adduct 14,046 Da
Assay: X-ray crystal structure of complex; mass spectrometry of covalent adduct
Format: binding
Conditions: covalent at Cys53 via C2; at least 5:1 molar ratio, 1 h, room temperature; only a 131 Da fragment of E64 modelled, intact adduct seen by mass spectrometry

CC(C)C[C@H](NC(=O)[C@H]1O[C@@H]1C(=O)O)C(=O)NCCCCNC(=N)N [E64]
X-ray crystal structure of complex; mass spectrometry of covalent adduct: The structure of TvNlpC_B3 bound to the inhibitor E64 was determined by molecular replacement
